Numbers after ± are expanded uncertainties.
Conditions: for viscosity / mass density: 101.33 kPa, Liquid; for viscosity: Concentric cylinders viscometry; for mass density: Vibrating tube method; for Glass transition temperature: DSC; for Normal melting temperature: Crystal, DTA

SMILES	viscosity (293.15 K) [mPa·s]	mass density (293.15 K) [kg/m3]	viscosity (298.15 K) [mPa·s]	mass density (298.15 K) [kg/m3]	viscosity (303.15 K) [mPa·s]	mass density (303.15 K) [kg/m3]	viscosity (308.15 K) [mPa·s]	mass density (308.15 K) [kg/m3]	viscosity (313.15 K) [mPa·s]	mass density (313.15 K) [kg/m3]	viscosity (318.15 K) [mPa·s]	mass density (318.15 K) [kg/m3]	viscosity (323.15 K) [mPa·s]	mass density (323.15 K) [kg/m3]	viscosity (328.15 K) [mPa·s]	mass density (328.15 K) [kg/m3]	viscosity (333.15 K) [mPa·s]	mass density (333.15 K) [kg/m3]	viscosity (338.15 K) [mPa·s]	mass density (338.15 K) [kg/m3]	also measured
CCCCC(CC)CCC(=O)[O-].CCCCCCCC[N+](C)(CCCCCCCC)CCCCCCCC [methyltrioctylammonium 4-ethyloctanoate]	5743.4 ± 800	893.1 ± 18	3733.4 ± 510	890.1 ± 18	2468.1 ± 330	887.1 ± 18	1672.3 ± 220	884 ± 18	1159.3 ± 150	881 ± 18	820.4 ± 110	877.9 ± 18	592.1 ± 77	874.9 ± 17	434.7 ± 56	871.8 ± 17	324.9 ± 42	868.8 ± 17	246.3 ± 32	865.8 ± 17	viscosity (343.15 K): 189.2 ± 24 mPa·s; mass density (343.15 K): 862.8 ± 17 kg/m3; viscosity (348.15 K): 147.4 ± 19 mPa·s; mass density (348.15 K): 859.8 ± 17 kg/m3; viscosity (353.15 K): 116.1 ± 15 mPa·s; mass density (353.15 K): 856.8 ± 17 kg/m3; viscosity (358.15 K): 92.4 ± 12 mPa·s; mass density (358.15 K): 853.9 ± 17 kg/m3; viscosity (363.15 K): 74.1 ± 9.4 mPa·s; mass density (363.15 K): 850.9 ± 17 kg/m3; Glass transition temperature: -76.6 ± 1 °C
CCCCCCCC/C=C\CCCCCCCC(=O)[O-].CCCCCCCC[N+](C)(CCCCCCCC)CCCCCCCC [methyltrioctylammonium oleate]	2934 ± 240	890.5 ± 7.6	1971.4 ± 150	887.5 ± 7.5	1354.6 ± 100	884.5 ± 7.5	957.7 ± 70	881.5 ± 7.5	692.7 ± 49	878.5 ± 7.4	511.3 ± 36	875.5 ± 7.4	384.4 ± 26	872.5 ± 7.4	293.8 ± 20	869.5 ± 7.4	227.9 ± 15	866.6 ± 7.3	179.2 ± 12	863.6 ± 7.3	viscosity (343.15 K): 142.7 ± 9.2 mPa·s; mass density (343.15 K): 860.7 ± 7.3 kg/m3; viscosity (348.15 K): 114.3 ± 7.3 mPa·s; mass density (348.15 K): 857.8 ± 7.3 kg/m3; viscosity (353.15 K): 92.3 ± 5.9 mPa·s; mass density (353.15 K): 854.9 ± 7.2 kg/m3; viscosity (358.15 K): 74.9 ± 4.8 mPa·s; mass density (358.15 K): 852 ± 7.2 kg/m3; viscosity (363.15 K): 61.8 ± 3.9 mPa·s; mass density (363.15 K): 849.1 ± 7.2 kg/m3; Normal melting temperature: -5.9 ± 0.5 °C; Glass transition temperature: -56.3 ± 1.2 °C
CCCCCCCC/C=C\CCCCCCCC(=O)[O-].CCCCCC[N+](CCCCCC)(CCCCCC)CCCCCC [tetrahexylammonium oleate]	2509.9 ± 200	889.9 ± 5.5	1623.7 ± 120	886.9 ± 5.5	1086.6 ± 79	883.9 ± 5.5	749 ± 53	880.9 ± 5.5	530.9 ± 36	877.8 ± 5.4	384.9 ± 26	874.8 ± 5.4	285.3 ± 19	871.8 ± 5.4	215.5 ± 14	868.8 ± 5.4	165.4 ± 10	865.8 ± 5.4	129.5 ± 8.2	862.9 ± 5.3	viscosity (343.15 K): 102.9 ± 6.4 mPa·s; mass density (343.15 K): 859.9 ± 5.3 kg/m3; viscosity (348.15 K): 82.8 ± 5.1 mPa·s; mass density (348.15 K): 857 ± 5.3 kg/m3; viscosity (353.15 K): 67.5 ± 4.2 mPa·s; mass density (353.15 K): 854 ± 5.3 kg/m3; viscosity (358.15 K): 55.5 ± 3.4 mPa·s; mass density (358.15 K): 851 ± 5.3 kg/m3; viscosity (363.15 K): 45.5 ± 2.8 mPa·s; mass density (363.15 K): 847.9 ± 5.3 kg/m3; Glass transition temperature: -83.2 ± 0.8 °C
CCCCCCCC/C=C\CCCCCCCC(=O)[O-].CCCCCCCC[N+](CCCCCCCC)(CCCCCCCC)CCCCCCCC [tetraoctylammonium oleate]	1689.3 ± 130	878.4 ± 7.4	1153.4 ± 86	875.3 ± 7.4	804.8 ± 58	872.3 ± 7.4	575.4 ± 40	869.2 ± 7.4	420.8 ± 29	866.1 ± 7.3	314.4 ± 21	863.1 ± 7.3	239.4 ± 16	860.1 ± 7.3	185.4 ± 12	857.1 ± 7.2	146.2 ± 9.5	854.1 ± 7.2	117 ± 7.5	851.1 ± 7.2	viscosity (343.15 K): 94.9 ± 6.1 mPa·s; mass density (343.15 K): 848.2 ± 7.2 kg/m3; viscosity (348.15 K): 77.9 ± 4.9 mPa·s; mass density (348.15 K): 845.2 ± 7.1 kg/m3; viscosity (353.15 K): 64.1 ± 4.1 mPa·s; mass density (353.15 K): 842.2 ± 7.1 kg/m3; viscosity (358.15 K): 53.5 ± 3.4 mPa·s; mass density (358.15 K): 839.2 ± 7.1 kg/m3; viscosity (363.15 K): 44.3 ± 2.8 mPa·s; mass density (363.15 K): 836.1 ± 7.1 kg/m3; Normal melting temperature: -29.5 ± 0.7 °C; Glass transition temperature: -79.8 ± 1.5 °C

— the NIST ThermoML archive (doi:10.1016/j.jct.2016.04.021)
